Our source for the mutagenic call values is PubChem BioAssay AID1259407 (Chemical Carcinogenesis Research Information System (CCRIS), 2018).

Active and inactive are the calls of the source. No rule for the calls is given here.

The data set concerns CCRIS mutagenicity, Ames/micronucleus/aberration tests. As to the kind of experiment: CCRIS mutagenicity studies.
[1] abbreviates: Test System: AMES SALMONELLA TYPHIMURIUM, Strain/Indicator: TA98, Metabolic Activation: NONE, Method: PREINCUBATION
Setting [2] is: Test System: AMES SALMONELLA TYPHIMURIUM, Strain/Indicator: TA100, Metabolic Activation: NONE, Method: PREINCUBATION
[3] abbreviates: Test System: AMES SALMONELLA TYPHIMURIUM, Strain/Indicator: TA1535, Metabolic Activation: NONE, Method: STANDARD PLATE.
[4] abbreviates: Test System: AMES SALMONELLA TYPHIMURIUM, Strain/Indicator: TA98, Metabolic Activation: RAT, LIVER, S-9, AROCLOR 1254, Method: STANDARD PLATE.
[5] abbreviates: Test System: AMES SALMONELLA TYPHIMURIUM, Strain/Indicator: TA100, Metabolic Activation: NONE, Method: STANDARD PLATE.
[6] abbreviates: Test System: AMES SALMONELLA TYPHIMURIUM, Strain/Indicator: TA98, Metabolic Activation: NONE, Method: STANDARD PLATE.

In the case of `OCCOCCO`, the mutagenic call is “inactive; negative” (Test System: AMES SALMONELLA TYPHIMURIUM, Strain/Indicator: TA97A, Metabolic Activation: NONE); “inactive; negative” (Test System: AMES SALMONELLA TYPHIMURIUM, Strain/Indicator: TA97A, Metabolic Activation: RAT, LIVER, S-9, AROCLOR 1254); “inactive; negative” (Test System: AMES SALMONELLA TYPHIMURIUM, Strain/Indicator: TA98, Metabolic Activation: HAMSTER, LIVER, S-9, AROCLOR 1254 (10%), Method: PREINCUBATION); “inactive; negative” (Test System: AMES SALMONELLA TYPHIMURIUM, Strain/Indicator: TA98, Metabolic Activation: NONE); “inactive; negative” under setting [1]; “inactive; negative” (Test System: AMES SALMONELLA TYPHIMURIUM, Strain/Indicator: TA98, Metabolic Activation: RAT, LIVER, S-9, AROCLOR 1254). Moreover, the mutagenic call runs as follows: (Test System: AMES SALMONELLA TYPHIMURIUM, Strain/Indicator: TA98, Metabolic Activation: RAT, LIVER, S-9, AROCLOR 1254 (10%), Method: PREINCUBATION) “inactive; negative”; (Test System: AMES SALMONELLA TYPHIMURIUM, Strain/Indicator: TA100, Metabolic Activation: HAMSTER, LIVER, S-9, AROCLOR 1254 (10%), Method: PREINCUBATION) “inactive; negative”; (Test System: AMES SALMONELLA TYPHIMURIUM, Strain/Indicator: TA100, Metabolic Activation: NONE) “inactive; negative”; under setting [2], “inactive; negative”; (Test System: AMES SALMONELLA TYPHIMURIUM, Strain/Indicator: TA100, Metabolic Activation: RAT, LIVER, S-9, AROCLOR 1254) “inactive; negative”; (Test System: AMES SALMONELLA TYPHIMURIUM, Strain/Indicator: TA100, Metabolic Activation: RAT, LIVER, S-9, AROCLOR 1254 (10%), Method: PREINCUBATION) “inactive; negative”. For the same molecule, the mutagenic call (Test System: AMES SALMONELLA TYPHIMURIUM, Strain/Indicator: TA102, Metabolic Activation: NONE) is “inactive; negative”; the mutagenic call (Test System: AMES SALMONELLA TYPHIMURIUM, Strain/Indicator: TA102, Metabolic Activation: RAT, LIVER, S-9, AROCLOR 1254) was “inactive; negative”; the mutagenic call (Test System: AMES SALMONELLA TYPHIMURIUM, Strain/Indicator: TA1535, Metabolic Activation: HAMSTER, LIVER, S-9, AROCLOR 1254 (10%), Method: PREINCUBATION) was “inactive; negative”; the mutagenic call (Test System: AMES SALMONELLA TYPHIMURIUM, Strain/Indicator: TA1535, Metabolic Activation: NONE, Method: PREINCUBATION) is “inactive; negative”; the mutagenic call (Test System: AMES SALMONELLA TYPHIMURIUM, Strain/Indicator: TA1535, Metabolic Activation: RAT, LIVER, S-9, AROCLOR 1254 (10%), Method: PREINCUBATION) was “inactive; negative”; the mutagenic call (Test System: AMES SALMONELLA TYPHIMURIUM, Strain/Indicator: TA1537, Metabolic Activation: HAMSTER, LIVER, S-9, AROCLOR 1254 (10%), Method: PREINCUBATION) was “inactive; negative”. The mutagenic call (Test System: AMES SALMONELLA TYPHIMURIUM, Strain/Indicator: TA1537, Metabolic Activation: NONE, Method: PREINCUBATION) was “inactive; negative” and the mutagenic call (Test System: AMES SALMONELLA TYPHIMURIUM, Strain/Indicator: TA1537, Metabolic Activation: RAT, LIVER, S-9, AROCLOR 1254 (10%), Method: PREINCUBATION) was “inactive; negative”.

For `CC(C)Oc1ccccc1OC(=O)N(C)N=O`, the mutagenic call was “active; positive (structural changes)” (End Point: In vitro chromosomal aberrations, Test System: Chinese hamster ovary (CHO-W8) cells, Metabolic Activation: None); “active; positive” (Test System: CHINESE HAMSTER V-79, Strain/Indicator: V-79 (HPRT)/6-THIOGUANINE, Metabolic Activation: NONE); “active; positive” (Test System: E. COLI WP2, Strain/Indicator: WP2, Metabolic Activation: NONE, Method: STANDARD PLATE).

Take `CN=NNC`: under setting [3], the mutagenic call is “active; positive”.

For `C/C(C=O)=C(/Cl)C(=O)O`, the mutagenic call under setting [1] was “active; positive”; the mutagenic call under setting [2] was “active; positive”; the mutagenic call (Test System: AMES SALMONELLA TYPHIMURIUM, Strain/Indicator: TA104, Metabolic Activation: NONE, Method: PREINCUBATION) was “active; positive”.

As to `Oc1cccc2c1ccc1c3ccccc3ccc21`, the mutagenic call was “inactive; negative” under setting [4] and “inactive; negative” under setting [5].

Consider `CC(C)Nc1nc(N)nc(Cl)n1`, for which the mutagenic call is, setting by setting: (Test System: AMES SALMONELLA TYPHIMURIUM, Strain/Indicator: TA97, Metabolic Activation: NONE, Method: STANDARD PLATE) “inactive; negative”; under setting [6], “inactive; negative”; under setting [5], “inactive; negative”.

As to `O=Nn1cnc(CC(=O)NO)c1`, the mutagenic call under setting [1] was “active; positive” and the mutagenic call under setting [2] was “active; positive”.

In the case of `CN(C)C(=O)Oc1ccc[n+](C)c1`, the mutagenic call was “inactive; negative” (Test System: AMES SALMONELLA TYPHIMURIUM, Strain/Indicator: TA98, Metabolic Activation: HAMSTER, LIVER, S-9, AROCLOR 1254, Method: STANDARD PLATE); “inactive; negative” under setting [6]; “inactive; negative” under setting [4]; “inactive; negative” (Test System: AMES SALMONELLA TYPHIMURIUM, Strain/Indicator: TA100, Metabolic Activation: HAMSTER, LIVER, S-9, AROCLOR 1254, Method: STANDARD PLATE); “inactive; negative” under setting [5]; “inactive; negative” (Test System: AMES SALMONELLA TYPHIMURIUM, Strain/Indicator: TA100, Metabolic Activation: RAT, LIVER, S-9, AROCLOR 1254, Method: STANDARD PLATE). Besides, the mutagenic call is “inactive; negative” (Test System: AMES SALMONELLA TYPHIMURIUM, Strain/Indicator: TA1535, Metabolic Activation: HAMSTER, LIVER, S-9, AROCLOR 1254, Method: STANDARD PLATE); “inactive; negative” under setting [3]; “inactive; negative” (Test System: AMES SALMONELLA TYPHIMURIUM, Strain/Indicator: TA1535, Metabolic Activation: RAT, LIVER, S-9, AROCLOR 1254, Method: STANDARD PLATE); “inactive; negative” (Test System: AMES SALMONELLA TYPHIMURIUM, Strain/Indicator: TA1537, Metabolic Activation: HAMSTER, LIVER, S-9, AROCLOR 1254, Method: STANDARD PLATE); “inactive; negative” (Test System: AMES SALMONELLA TYPHIMURIUM, Strain/Indicator: TA1537, Metabolic Activation: NONE, Method: STANDARD PLATE); “inactive; negative” (Test System: AMES SALMONELLA TYPHIMURIUM, Strain/Indicator: TA1537, Metabolic Activation: RAT, LIVER, S-9, AROCLOR 1254, Method: STANDARD PLATE). Moreover, the mutagenic call runs as follows: (Test System: AMES SALMONELLA TYPHIMURIUM, Strain/Indicator: TA1538, Metabolic Activation: HAMSTER, LIVER, S-9, AROCLOR 1254, Method: STANDARD PLATE) “inactive; negative”; (Test System: AMES SALMONELLA TYPHIMURIUM, Strain/Indicator: TA1538, Metabolic Activation: NONE, Method: STANDARD PLATE) “inactive; negative”; (Test System: AMES SALMONELLA TYPHIMURIUM, Strain/Indicator: TA1538, Metabolic Activation: RAT, LIVER, S-9, AROCLOR 1254, Method: STANDARD PLATE) “inactive; negative”; (Test System: MOUSE LYMPHOMA, Strain/Indicator: L5178Y (TK+/TK-), Metabolic Activation: NONE, Method: SUSPENSION/PLATE) “inactive; negative. reevaluation of results: negative”; (Test System: MOUSE LYMPHOMA, Strain/Indicator: L5178Y (TK+/TK-), Metabolic Activation: RAT, LIVER, S-9, AROCLOR 1254, Method: SUSPENSION/PLATE) “active; positive. reevaluation of results: equivocal”.

Consider `O=NN(c1ccc(C(=O)O)cc1)C1OC[C@@H](O)[C@@H](O)[C@@H]1O` (some centres not stated), for which, for the setting “Test System: AMES SALMONELLA TYPHIMURIUM, Strain/Indicator: TA100, Metabolic Activation: NONE, Method: LIQUID INCUBATION”, the mutagenic call is “active; positive”.
